Results: patent US12043632B2, “6-heteroaryloxy benzimidazoles and azabenzimidazoles as JAK2 inhibitors” (Ajax Therapeutics, Inc., priority 2020, dated 2024)

target: T1, JAK2 (JH1domain-catalytic, Y1007F,Y1008F) kinase (Homo sapiens, UniProt O60674, Y1007F/Y1008F); assay: JAK2 JH1 Domain Binding Assay; details: qPCR readout
T1 construct: JAK2 (JH1domain-catalytic, Y1007F,Y1008F) kinase was expressed as N-terminal fusion; made in house; host or cells: transiently transfected HEK293 cells
T1 sequence (O60674 849-1124 Y1007F/Y1008F limits assumed): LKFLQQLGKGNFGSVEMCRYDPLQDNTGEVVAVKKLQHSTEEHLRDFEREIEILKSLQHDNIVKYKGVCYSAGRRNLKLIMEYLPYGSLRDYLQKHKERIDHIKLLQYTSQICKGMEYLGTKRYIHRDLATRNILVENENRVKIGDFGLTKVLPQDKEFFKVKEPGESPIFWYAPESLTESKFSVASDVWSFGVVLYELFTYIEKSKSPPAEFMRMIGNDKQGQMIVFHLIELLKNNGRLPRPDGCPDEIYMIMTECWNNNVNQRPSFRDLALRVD

`CN1CCN(Cc2ccc(Nc3nc4ncc(Oc5cnn6ccncc56)c(Cl)c4n3C)cc2C(F)(F)F)CC1` [Example I-120, 7-chloro-1-methyl-N-(4-((4-methylpiperazin-1-yl)methyl)-3-(trifluoromethyl)phenyl)-6-(pyrazolo[1,5-a]pyrazin-3-yloxy)-1H-imidazo[4,5-b]pyridin-2-amine] and `Cn1c(Nc2cc(C3CC3)cn(CC#N)c2=O)nc2ncc(Oc3cnn4ccncc34)c(Cl)c21` [Example I-132, 2-(3-((7-chloro-1-methyl-6-(pyrazolo[1,5-a]pyrazin-3-yloxy)-1H-imidazo[4,5-b]pyridin-2-yl)amino)-5-cyclopropyl-2-oxopyridin-1(2H)-yl)acetonitrile] cannot be ordered by Kd: less than 10 nM for the first, less than 10 nM for the second.

`COc1c(Oc2cnn3ccccc23)cnc2nc(Nc3cc(C4CC4)cn(CCCN4CCC(F)(F)C4)c3=O)n(C)c12` [Example I-123, 5-cyclopropyl-1-(3-(3,3-difluoropyrrolidin-1-yl)propyl)-3-((7-methoxy-1-methyl-6-(pyrazolo[1,5-a]pyridin-3-yloxy)-1H-imidazo[4,5-b]pyridin-2-yl)amino)pyridin-2(1H)-one] and `Cn1c(Nc2cc(C3CC3)cn(CCCN3CCCC(F)(F)C3)c2=O)nc2ncc(Oc3cnn4ccncc34)c(Cl)c21` [Example I-129, 3-((7-chloro-1-methyl-6-(pyrazolo[1,5-a]pyrazin-3-yloxy)-1H-imidazo[4,5-b]pyridin-2-yl)amino)-5-cyclopropyl-1-(3-(3,3-difluoropiperidin-1-yl)propyl)pyridin-2(1H)-one] fall in the same range of Kd: 10 to 50 nM for the first, 10 to 50 nM for the second.

Compared with `Cn1c(Nc2cc3n(n2)CCCC3(C)C)nc2ncc(Oc3cnn4ccnc(OCCO)c34)c(Cl)c21` [Example I-124, 2-((3-((7-chloro-2-((4,4-dimethyl-4,5,6,7-tetrahydropyrazolo[1,5-a]pyridin-2-yl)amino)-1-methyl-1H-imidazo[4,5-b]pyridin-6-yl)oxy)pyrazolo[1,5-a]pyrazin-4-yl)oxy)ethan-1-ol], `CNc1nccn2ncc(Oc3cnc4nc(Nc5cc6n(n5)CCCC6(C)C)n(C)c4c3Cl)c12` [Example I-125, 7-chloro-N-(4,4-dimethyl-4,5,6,7-tetrahydropyrazolo[1,5-a]pyridin-2-yl)-1-methyl-6-((4-(methylamino)pyrazolo[1,5-a]pyrazin-3-yl)oxy)-1H-imidazo[4,5-b]pyridin-2-amine] is higher in Kd: less than 10 nM for the first, 10 to 50 nM for the second. The first binds more tightly here.

`Cn1c(Nc2cc(C3CC3)nn(CCO)c2=O)nc2ncc(Oc3cnn4ccccc34)c(Cl)c21` [Example I-126, 4-((7-chloro-1-methyl-6-(pyrazolo[1,5-a]pyridin-3-yloxy)-1H-imidazo[4,5-b]pyridin-2-yl)amino)-6-cyclopropyl-2-(2-hydroxyethyl)pyridazin-3(2H)-one] and `CNc1nccn2ncc(Oc3cnc4nc(Nc5cc(C(F)(F)F)cn(C)c5=O)n(C)c4c3Cl)c12` [Example I-128, 3-((7-chloro-1-methyl-6-((4-(methylamino)pyrazolo[1,5-a]pyrazin-3-yl)oxy)-1H-imidazo[4,5-b]pyridin-2-yl)amino)-1-methyl-5-(trifluoromethyl)pyridin-2(1H)-one] cannot be ordered by Kd: less than 10 nM for the first, less than 10 nM for the second.

`Cn1cc(C(F)(F)F)cc(Nc2nc3ncc(Oc4cnn5ccnc(OCCN6CCOCC6)c45)c(Cl)c3n2C)c1=O` [Example I-127, 3-((7-chloro-1-methyl-6-((4-(2-morpholinoethoxy)pyrazolo[1,5-a]pyrazin-3-yl)oxy)-1H-imidazo[4,5-b]pyridin-2-yl)amino)-1-methyl-5-(trifluoromethyl)pyridin-2(1H)-one] and `COc1c(Oc2cnc3cnc(C4CC4)n3c2)cnc2nc(Nc3cc(C(C)(C)C)n([C@H]4C[C@H](O)C4)n3)n(C)c12` [Example I-130, (1r,3r)-3-(5-(tert-butyl)-3-((6-((6-cyclopropylimidazo[1,5-a]pyrimidin-3-yl)oxy)-7-methoxy-1-methyl-1H-imidazo[4,5-b]pyridin-2-yl)amino)-1H-pyrazol-1-yl)cyclobutan-1-ol] fall in the same range of Kd: 10 to 50 nM for the first, 10 to 50 nM for the second.
